# Tested on: T1, ACT3 (Cla022713)
# T1 construct: plant material in Methods: Number One
# Assay type: biochemical, Citrullus lanatus
# Conditions: 10 mM acetyl-CoA, 50 mM sodium phosphate pH 7.4, 30 °C; C16-O-acetylation
# Source text: acetylation assay, product by HPLC/LC-MS, Michaelis-Menten fit on ACT3 (Cla022713)
row,Compound,Km [µM]
1,CC(C)(O)/C=C/C(=O)[C@](C)(O)[C@H]1[C@H](O)C[C@@]2(C)[C@@H]3CC=C4[C@@H](C[C@H](O)C(=O)C4(C)C)[C@]3(C)C(=O)C[C@]12C [CuD],10.4 ± 1.19
2,CC(C)(O)/C=C/C(=O)[C@](C)(O)[C@H]1[C@H](O)C[C@@]2(C)[C@@H]3CC=C4[C@@H](C=C(O)C(=O)C4(C)C)[C@]3(C)C(=O)C[C@]12C [CuI],8.62 ± 0.95
3,CC(=O)OC(C)(C)/C=C/C(=O)[C@](C)(O)[C@H]1[C@H](O)C[C@@]2(C)[C@@H]3CC=C4[C@@H](C=C(O)C(=O)C4(C)C)[C@]3(C)C(=O)C[C@]12C [CuE],7.63 ± 4.83
4,CC(=O)OC(C)(C)/C=C/C(=O)[C@](C)(O)[C@H]1[C@H](O)C[C@@]2(C)[C@@H]3CC=C4[C@@H](C=C(O[C@@H]5O[C@H](CO)[C@@H](O)[C@H](O)[C@H]5O)C(=O)C4(C)C)[C@]3(C)C(=O)C[C@]12C [CuE-Glu],11.6 ± 1.62
5,CC(=O)OC(C)(C)/C=C/C(=O)[C@](C)(O)[C@H]1[C@H](O)C[C@@]2(C)[C@@H]3CC=C4[C@@H](C[C@H](O)C(=O)C4(C)C)[C@]3(C)C(=O)C[C@]12C [CuB],11.8 ± 1.74

# — article PMC7429850, “Critical enzymes for biosynthesis of cucurbitacin derivatives in watermelon and their biological significance” (Communications Biology, 2020)
